# Measurements published in patent publication US7521454B2 (Dainippon Sumitomo Pharma Co., Ltd., priority 2001, dated 2009).
# System: rat model of eosinophil leukocytic infiltration
# Assay: Rat model of eosinophil leukocytic infiltration (OVA, bronchoalveolar lavage)
# Format: in vivo
# Details: 2.5 hours before induction, lavage 24 hours after
# Method: A rat was immunized intraperitoneally with 1 ml of a solution containing 1 mg of ovalbumin (OVA) and 100 mg of Al(OH)3 on day 0 and day 7. On day 14, a 1% OVA solution was sprayed for 15 minutes using a ultrasonic nebulizer to induce reactions. A test compound was administered intratracheally 2.5 hours before the induction. Bronchoalveolar lavage was performed 24 hours after the induction, and eosinocytes in the wash was stained with Hinkelman to count the number of stained cells. Sensi.−/Challe.+, CMC-Na, and Fluticasone were used as controls. FIG. 1 and the following table show the results.
compound,measurement,setting,value
"CCCCNc1nc(N)c2nc(O)n(Cc3ccc(C)nc3)c2n1 [Example 27, 2-Butylamino-8-hydroxy-9-(6-methyl-3-pyridylmethyl)adenine]","eosinocytes in bronchoalveolar lavage, Average",0.001 mg/kg intratracheal,383.85 ×10^4 cells
same,"eosinocytes in bronchoalveolar lavage, Average",0.01 mg/kg intratracheal,186.77 ×10^4 cells
same,"eosinocytes in bronchoalveolar lavage, Average",0.1 mg/kg intratracheal,46.84 ×10^4 cells
